Laboratory results: patent US7622469B2, “2,4-diamino-1,3,5-triazine derivatives” (Hamari Chemicals, Ltd., priority 2002, dated 2009)

Assays:
[1] = system: MRSA 97-115; test: Antibacterial activity test (MIC); type: cell-based, methicillin-resistant Staphylococcus aureus; settings: Mueller-Hinton Broth, 37° C., 20 to 24 hours
Description: (§1) Regarding compounds obtained in respective Working Examples, in order to investigate antibacterial activity, minimal inhibitory concentration (MIC) was determined according to a standard method of Japanese Society of Chemotherapy.
(§2) As a test bacterium, nine kinds of S. aureus 209PJC, MRSA 97-115, MRSA KM 97-53, MRSA KM97-108, VRE 49, E. coli NIHJ JC-2, P. aeruginosa PAO-1, P. aeruginosa No. 12, P. aeruginosa KM97-5 were used and, as a medium, Mueller-Hinton Broth (DIFCO) was used. One platinum loop of a test bacterium was inoculated into 20 ml of a medium, and static culture was carried out at 37° C. for 16 to 20 hours, and then each bacterium species was diluted with a sterilized physiological saline to 10^5/ml, which was used as a test bacterium solution.
(§3) Then, each compound was dissolved in methanol, subjected to ½ stepwise dilution with a medium to prepare a medium for measuring sensitivity, and each 2 ml was dispensed into a test tube. A compound concentration in a medium was adjusted to 100 μg/ml and its 2^n-fold (n=−10 to 1).
(§4) Numerical values in Tables represent MIC expressed in μg/ml unit.

[2] = system: E. coli NIHJ JC-2; test: Antibacterial activity test (MIC); type: cell-based; settings: Mueller-Hinton Broth, 37° C., 20 to 24 hours
Description: as §1, §2, §3, §4

[3] = system: P. aeruginosa PAO-1; test: Antibacterial activity test (MIC); type: cell-based; settings: Mueller-Hinton Broth, 37° C., 20 to 24 hours
Description: as §1, §2, §3, §4

[4] = system: S. aureus 209PJC; test: Antibacterial activity test (MIC); type: cell-based; settings: Mueller-Hinton Broth, 37° C., 20 to 24 hours
Description: as §1, §2, §3, §4

[5] = system: E. coli NIHJ JC-2; test: Bactericidal activity test (MBC, phenol coefficient measuring method); type: cell-based
Description: (§5) As a test bacterium, the same bacteria species as those of the antibacterial activity test were used; as a medium to be used, a SCD medium (manufactured by Eiken Chemical Co., Ltd.) was used for pre-culture medium; and a heart infusion bouillon medium (manufactured by Eiken Chemical Co., Ltd.) was used as a medium for growing a live bacterium in a test solution after bactericidal treatment. One platinum loop of a test bacterium was inoculated into 20 ml of a medium, and static culture was carried out at 37° C. for 18 to 20 hours, and the cells were adjusted with a sterilized physiological saline to 1×10^7/ml, which was used as a test bacterium solution.
(§6) Then, a solution of each compound in methanol was subjected to ½ stepwise dilution with sterilized water, each 5 ml was dispensed into a test tube, 0.5 ml of the previously prepared test bacterium solution was added thereto, and the mixture was blended well. After 1 minute, 3 minutes and 5 minutes has passed, 5 μl of the test solution was collected and inoculated into 2 ml of a heart infusion bouillon medium, this was cultured at 37° C. for 40 to 48 hours, and the presence or absence of growth of a bacterium was determined. A test was performed three times, a minimum concentration at which growth of a bacterium was not recognized two or more times was adopted as a minimal bactericidal concentration (MBC value).
(§7) Numerical values in Tables represent MBC expressed in μg/ml unit.

[6] = system: P. aeruginosa PAO-1; test: as above; type: cell-based
Description: as §5, §6, §7

[7] = system: S. aureus 209PJC; test: as above; type: cell-based
Description: as §5, §6, §7

[8] = system: MRSA 97-115; test: as above; type: cell-based, methicillin-resistant Staphylococcus aureus
Description: as §5, §6, §7

minimal inhibitory concentration (MIC) [1] [µg/mL]	minimal inhibitory concentration (MIC) [2] [µg/mL]	minimal inhibitory concentration (MIC) [3] [µg/mL]	minimal inhibitory concentration (MIC) [4] [µg/mL]	SMILES	minimal bactericidal concentration (MBC) ([5]; 1 min) [µg/mL]	minimal bactericidal concentration (MBC) ([5]; 3 min) [µg/mL]	minimal bactericidal concentration (MBC) ([5]; 5 min) [µg/mL]	minimal bactericidal concentration (MBC) ([6]; 1 min) [µg/mL]	minimal bactericidal concentration (MBC) ([6]; 3 min) [µg/mL]	minimal bactericidal concentration (MBC) ([6]; 5 min) [µg/mL]	minimal bactericidal concentration (MBC) ([7]; 1 min) [µg/mL]	minimal bactericidal concentration (MBC) ([7]; 3 min) [µg/mL]	minimal bactericidal concentration (MBC) ([7]; 5 min) [µg/mL]	minimal bactericidal concentration (MBC) ([8]; 1 min) [µg/mL]	minimal bactericidal concentration (MBC) ([8]; 3 min) [µg/mL]	minimal bactericidal concentration (MBC) ([8]; 5 min) [µg/mL]
0.8	50	50	0.4	CCCCCCCCCCNC1=NC(C)(C)N=C(NCCc2ccc(OC)cc2)N1.Cl [compound 4]	3.1	1.6	1.6	3.1	3.1	1.6	50	12.5	6.3	25	6.3	6.3
1.6	25	50	0.8	CC(=O)O.CCCCCCCCNC1=NC(C)(C)N=C(Nc2cnc3ccccc3c2)N1 [compound 82]	6.3	6.3	3.1	12.5	12.5	6.3	12.5	6.3	6.3	50	25	25
1.6	50	100	0.8	CC(=O)O.CCCCCCCCCCCCNC1=NC(C)(C)N=C(NCc2ccco2)N1 [compound 79]	–	–	–	–	–	–	–	–	–	–	–	–
3.1	25	>100	0.4	CCCCCCCCNC1=NC(C)(C)N=C(NCc2ccc(O)cc2)N1.Cl [compound 8]	–	–	–	–	–	–	–	–	–	–	–	–
0.8	12.5	100	0.8	CC(=O)O.CCCCCCCCNC1=NCN=C(NCCCCCCCC)N1 [compound 74]	–	–	–	–	–	–	–	–	–	–	–	–

More lines, now with the values behind:

SMILES	minimal inhibitory concentration (MIC) [1] [µg/mL]	minimal inhibitory concentration (MIC) [2] [µg/mL]	minimal inhibitory concentration (MIC) [3] [µg/mL]	minimal inhibitory concentration (MIC) [4] [µg/mL]	minimal bactericidal concentration (MBC) ([5]; 1 min) [µg/mL]	minimal bactericidal concentration (MBC) ([5]; 3 min) [µg/mL]	minimal bactericidal concentration (MBC) ([5]; 5 min) [µg/mL]	minimal bactericidal concentration (MBC) ([6]; 1 min) [µg/mL]	minimal bactericidal concentration (MBC) ([6]; 3 min) [µg/mL]	minimal bactericidal concentration (MBC) ([6]; 5 min) [µg/mL]	minimal bactericidal concentration (MBC) ([7]; 1 min) [µg/mL]	minimal bactericidal concentration (MBC) ([7]; 3 min) [µg/mL]	minimal bactericidal concentration (MBC) ([7]; 5 min) [µg/mL]	minimal bactericidal concentration (MBC) ([8]; 1 min) [µg/mL]	minimal bactericidal concentration (MBC) ([8]; 3 min) [µg/mL]	minimal bactericidal concentration (MBC) ([8]; 5 min) [µg/mL]
CCCCCCCCCCNC1=NC(C)(C)N=C(NCc2ccc(OC)cc2)N1.CS(=O)(=O)O [38(2)]	0.8	25	100	0.4	6.3	3.1	3.1	6.3	3.1	1.6	12.5	6.3	3.1	25	12.5	12.5
CCCCCCCCCCC1N=C(N)N=C(N)N1c1ccc(F)c(F)c1F.Cl (stereo not shown) [compound 31]	3.1	12.5	25	1.6	12.5	12.5	6.3	12.5	12.5	6.3	25	12.5	12.5	25	12.5	6.3
CCCCCCCCCCCC1N=C(N)NC(NCc2ccccc2)=N1.Cl (racemic) [43(1)]	0.8	6.3	25	0.4	12.5	6.3	3.1	3.1	3.1	3.1	25	6.3	6.3	50	25	12.5
CCCCCCCCCC1N=C(N)N=C(N)N1c1ccc(C(C)(C)C)cc1.Cl (stereo not shown) [compound 22]	0.8	25	25	0.8	6.3	6.3	6.3	12.5	3.1	3.1	12.5	6.3	6.3	25	25	12.5
CCCCCCCCCCNC1=NC(C)(C)N=C(NCc2ccccc2)N1.CS(=O)(=O)O [compound 2]	0.8	–	–	0.4	6.3	3.1	3.1	3.1	1.6	1.6	12.5	6.3	3.1	25	12.5	6.3
CCCCCCCCCCCC1N=C(N)NC(Nc2ccc(F)cc2F)=N1.Cl (racemic) [compound 36]	1.6	>100	>100	0.8	–	–	–	–	–	–	–	–	–	–	–	–
CCCCCCCCCC1N=C(N)N=C(N)N1c1ccc(OC(F)(F)F)cc1.Cl (stereo not shown) [compound 28]	3.1	25	50	1.6	–	–	–	–	–	–	–	–	–	–	–	–
